# Results: PubChem BioAssay AID1117319 (Southern Research Institute, 2015)
# Records with an inconclusive call do not appear.
# Target: Virion infectivity factor (Human immunodeficiency virus type 1 group M subtype B (isolate BH10)) + Virion infectivity factor (Human immunodeficiency virus type 1 group M subtype B (isolate BRU/LAI)) + Virion infectivity factor (Human immunodeficiency virus type 1 group M subtype B (isolate PCV12)) + Virion infectivity factor (Human immunodeficiency virus type 1 group M subtype B (isolate HXB2)) + DNA dC->dU-editing enzyme APOBEC-3G (Homo sapiens) (UniProt P69720+P69721+P69722+P69723+Q9HC16)
# Experiment: inhibitors of Vif binding to APOBEC3G peptide, primary screen, biochemical, TR-FRET, GST-Vif 1-94, biotin-A3G peptide, dose response retest (AID 1117319);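 further: Vif residues 1-94 fused to GST binding biotinylated APOBEC3G peptide 110-148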
row,SMILES,IC50
1,CN1C(=O)/C(=C/C=C/c2ccco2)C(=O)NC1=S,13.4 µM
2,Cn1cccc1/C=C1\C(=O)NC(=O)N(Cc2ccccc2)C1=O,11.2 µM
3,O=C1CC(=O)N(Cc2ccco2)C(=O)N1,4.49 µM
4,O=C(c1coc(=O)c(Br)c1)N1CCCc2ccccc21,24.3 µM
5,Nc1ccc(N2CCCCCC2)cc1,1.06 µM
6,CCn1c(SCC(=O)Nc2cc(C)on2)nnc1-c1cccnc1,9.51 µM
7,O=C(CN1CCN(S(=O)(=O)c2ccc(F)cc2)CC1)c1ccc(O)c(O)c1,20.1 µM
8,O=C(O)c1cc2cccc(S(=O)(=O)N3CCOCC3)c2cc1O,38 µM
9,COC(=O)C1=C(N)OC2=C(C(=O)CCC2)C1c1cccs1 (configuration not stated),44.8 µM
10,O=C(O)C[C@@H]1C(=O)O[C@@H]2C(COC(=O)c3cc(O)c(O)c(O)c3)O[C@@H](OC(=O)c3cc(O)c(O)c(O)c3)[C@@H](OC(=O)c3cc(O)c(O)c4c3[C@H]1[C@H](O)C(=O)O4)[C@H]2OC(=O)c1cc(O)c(O)c(O)c1 (some centres not stated),< 0.195 µM
11,O=[N+]([O-])c1cc(/C=N\Nc2nccs2)ccc1O,1.62 µM
12,Cc1cc(C)nc(N/N=C/C2=C(N3CCOCC3)C(=C\c3ccc(Cl)cc3)/CC2)n1,13.3 µM
13,Cc1ccc(/C=c2\sc3nc(-c4cccs4)nn3c2=O)o1,13.2 µM
14,O=C(O)c1ccc(-n2cccc2/C=C2/NC(=O)N(c3ccccc3)C2=O)cc1,3.34 µM
15,COc1cc(C(=O)NCC(c2ccco2)N2CCCC2)ccc1OCc1c(C)noc1C (configuration not stated),99.2 µM
16,Nc1cccc2cc(S(=O)(=O)O)ccc12,35 µM
17,CC(=O)Nc1cc(NC(C)=O)cc(C(=O)N2CCCC3CCCCC32)c1 (configuration not stated),9.5 µM
18,Cc1cc(C(=O)CSc2nnnn2C)c(C)n1CCc1ccc(Cl)cc1,29.4 µM
19,COc1ccc(-c2cc(-c3ccco3)[nH]c(=O)c2C#N)cc1,25.3 µM
20,Cc1cccc(-n2nc3c(c2NC(=O)c2ccc(Br)o2)CSC3)c1,63.6 µM
21,Cc1ccc(-c2cc(-c3ccc4c(c3)OCO4)c(C#N)c(N)n2)o1,7.11 µM
22,O=C1C=C(N2CC2)c2ccccc2C1=O,11.3 µM
23,O=C(O)c1ccc(Cl)c2c1C1C=CCC1C(c1ccccn1)N2 (configuration not stated),0.82 µM

row,SMILES,IC50
1,CCn1c(SCC(=O)OC)nc2sc3c(c2c1=O)CCC3,12.7 µM
2,Cc1nc2ccccc2n2c(O)c(CC(=O)O)cc12,30.2 µM
3,O=C1CCCC(O)=C1C=Nc1ccc(O)cc1,35.4 µM
4,NC(=O)Cn1c(=O)n(Cc2ccco2)c(=O)c2c3c(sc21)CCCCC3,3.8 µM
5,Cc1noc(C)c1S(=O)(=O)Nc1ccc2c(c1)C(=O)N([C@@H](C)CO)C[C@H](C)[C@@H](CN(C)Cc1ccc(C(F)(F)F)cc1)OCCCC[C@H](C)O2,96 µM
6,COc1cc2c(cc1OC)C(=O)C(Br)CC2 (configuration not stated),1.48 µM
7,O=C(Nc1ccccc1-c1nnn(CC(=O)N2CCc3ccccc3C2)n1)C1CCC1,91 µM
8,CCOc1cccc(=O)c2c(C)n(C)c(C)c12,11.6 µM
9,O=C1/C(=C\c2ccco2)NC(=S)N1c1ccccc1,16.4 µM
10,O=C1CC(SC(=S)C2CCCC2=O)C(=O)N1 (configuration not stated),27.8 µM
11,CCCCn1c(=NC(=O)c2cccnc2)c(C#N)cc2c(=O)n3cccc(C)c3nc21,55.9 µM
12,CCOC(=O)C1=C(O)/C(=C/c2ccc(CNC(=O)C(=O)Nc3ccc(C)cc3)o2)N=C1C,33.3 µM
13,O=C(NCc1ccco1)c1cc(-c2cccc(Cl)c2)on1,36.9 µM
14,Cc1cc(-c2ccco2)n(-c2ccccc2)n1,50.4 µM
15,Oc1ccc(/C=N/NP(=S)(c2ccccc2)c2ccccc2)c(O)c1O,17.6 µM
16,CCOC(=O)C1CCCC12Nc1cccc3cccc(c13)N2 (configuration not stated),3.74 µM
17,Cc1cc(NC(=O)Cc2cccs2)no1,3.92 µM
18,CC1=CC(C)(C)N2C(=O)C(=Nc3ccc(O)cc3)c3cccc1c32,3.5 µM
19,NC(=O)c1c(NC(=O)Cc2cccs2)sc2c1CCC2,49.5 µM
20,Cc1cc(Cl)c(S(=O)(=O)NCC2CCCO2)cc1OCC(=O)NC1CCCCC1 (configuration not stated),77.1 µM
21,CCC1=NN2C(=N)/C(=C\c3ccc(SCc4ccco4)o3)C(=O)N=C2S1,10.4 µM
22,Cn1cnnc1SCC(=O)Nc1ncc([N+](=O)[O-])s1,36.1 µM
23,Oc1ccc(/C=N/N=C/c2ccc(O)c(O)c2)cc1O,4.82 µM

row,SMILES,IC50
1,CCc1ccccc1NC(=O)c1cccc(NC(=O)/C=C/c2ccco2)c1,10.8 µM
2,O=C(CCS(=O)(=O)c1ccc(Br)cc1)N1CCN(c2ccc(F)cc2)CC1,52.8 µM
3,COC1=C(OC)C(=O)C(Sc2ccc3ccccc3c2)=CC1=O,8.68 µM
4,CC(=O)c1cccc(NC(=O)c2cnn3ccccc23)c1,77.6 µM
5,CC1CCCN(Cc2c(O)ccc3c2O/C(=C\c2ccco2)C3=O)C1 (configuration not stated),2.89 µM
6,Cc1cc(/C=C2\SC(=S)NC2=O)c(C)n1-c1ccccc1,14.1 µM
7,CCCC(=O)Nc1ccc(Br)cn1,65.1 µM
8,CCOC(=O)c1nn(-c2ccc(Cl)cc2Cl)c(=N)c(C#N)c1C,12.7 µM
9,N#Cc1c(-c2ccco2)c2c([nH]c1=S)CCCC2,12.1 µM
10,CC1(C)CCCN(C(=O)c2coc(=O)c(Br)c2)C1,3.54 µM
11,Cc1[nH]c2ccccc2c1C1=CC(=O)C=CC1=O,4.25 µM
12,Cc1cc(C)c2c(c1)[C@@H]1C=CC[C@@H]1[C@H](c1ccc(S(=O)(=O)N3CCOCC3)cc1)N2,19.5 µM
13,O=C(Cc1csc(N2CCOCC2)n1)N/N=C/c1ccc(O)c(O)c1O,1.3 µM
14,Cc1cccc2cc(-c3ccccc3)c(-c3ccccc3)c[n+]12,6.83 µM
15,Cc1ccc(CCC(=O)Nc2ccc(S(N)(=O)=O)cc2)o1,57.4 µM
16,CCN(CC)Cc1cc(Nc2c3ccccc3nc3c4ccccc4n(C)c23)cc(CN(CC)CC)c1O,10.9 µM
17,Cn1c(=O)c2c(ncn2CC(=O)N/N=C/C=C/c2ccco2)n(C)c1=O,6.39 µM
18,Cc1cc(C)c([N+](=O)[O-])cc1-c1ccc(/C=N/c2c(-c3ccco3)nc3ccccn23)o1,42.4 µM
19,COC(=O)CCCC(=O)Nc1c(F)c(F)c(F)c(F)c1F,24.3 µM
20,N#C/C=C\Oc1ccc(Cl)cc1N,50.3 µM
21,CCn1c(COc2ccc3c(c2)OCO3)nnc1SCC(=O)c1ccc(Cl)cc1,78.1 µM
22,COc1cc(/C=C/C=C2/CC/C(=C/C=C/c3ccc(O)c(OC)c3)C2=O)ccc1O,4.03 µM
23,O=C(Nc1nc(-c2ccco2)c(-c2ccco2)s1)c1ccco1,32.2 µM

row,SMILES,IC50
1,COc1cc(NC(=O)c2noc3c2CCC3)c(OC)cc1Cl,15.8 µM
2,Cn1c(N)c(C(=O)COC(=O)C2CCCCC2)c(=O)n(C)c1=O,92.9 µM
3,CCOC(=O)C1CCN(C(=O)COc2ccc(S(=O)(=O)NC(C)C)cc2)CC1,27.8 µM
4,CCc1ccccc1N(CC(=O)NCCSCc1ccco1)S(C)(=O)=O,78.4 µM
5,Cc1ccc(C)n1-c1ccc(C(=O)O)cc1,5.12 µM
6,CC(C)CC(=O)Nc1nnc(-c2ccco2)s1,68.1 µM
7,Cc1ccc(OCCSc2nnc(-c3ccncc3)n2C)cc1,75.9 µM
8,O=c1[nH]c(=S)[nH]c2c1C(c1ccc(Br)cc1)c1c([nH]c(=S)[nH]c1=O)O2,41.1 µM
9,O=C1NC(=O)N(Cc2ccccc2)C(=O)/C1=C\C=C\c1ccco1,4 µM
10,CCOC(=O)C1=C(C)NC(C)=C(C(=O)OCC)C1c1cn(-c2ccccc2)nc1-c1ccco1,31.1 µM
11,O=C(COC(=O)/C=C/c1ccco1)Nc1ncc(C(F)(F)F)cc1Cl,12.7 µM
12,COC(=O)c1ccc(COc2ccccc2/C=C(\C#N)C(=O)Nc2c(C)cc(C)cc2C)cc1,22.9 µM
13,COc1ccccc1NC(=O)COC(=O)c1cc2c(s1)CCC2,17.6 µM
14,C/C(=N\O)C(=O)NCc1ccccn1,77.5 µM
15,CCCn1c(CNc2ccccc2O)nc2ccccc21,53 µM
16,CC(C)CC(NC(=O)/C(=C/c1ccco1)NC(=O)c1ccc(Br)o1)C(=O)O (configuration not stated),93.5 µM
17,COc1ccc(/C=N\NC(=O)c2cc(O)c(O)c(O)c2)cc1CN1CCN(c2ccc(F)cc2)CC1,< 2.47 µM
18,COc1ccc(C(=O)n2nc(-c3ccc(Cl)cc3)nc2N)cc1OC,70.9 µM
19,CC(N=Cc1cccc(O)c1O)c1ccccc1 (configuration not stated),2.61 µM
20,O=C(Cc1ncn[nH]1)NCCc1ccccc1,96.9 µM
21,CCOC(=O)C1CCN(Cc2cnc(Oc3ccc(OC)cc3)s2)CC1,80.9 µM
22,COc1ccc(NS(=O)(=O)c2cccc(C(=O)NNC(=O)c3cccn3C)c2)cc1,12.7 µM
23,O=C(CN1C(=O)NC2(CCCCCCC2)C1=O)NCc1cccs1,11.1 µM

row,SMILES,IC50
1,N#Cc1c(N)sc(=S)c2c1CCCCC2,4.22 µM
2,CCNc1ccc(Br)cc(C(=O)/C=C/c2ccc(Cl)cc2)c1=O,7.05 µM
3,O=C1CC(c2ccco2)CC(O)=C1C=NCC1CCNCC1 (configuration not stated),13.5 µM
4,COC(=O)C1=C(O)/C(=C\c2ccc(CNC(=O)C(=O)Nc3ccc(C)c(C)c3)o2)N=C1C,34.1 µM
5,O=C(Nc1cccc(C(F)(F)F)c1)c1ccc2nc(-c3ccco3)c(-c3ccco3)nc2c1,0.69 µM
6,O=c1cc(-c2ccc(O)c(O)c2)oc2cc(O)c(C3OC(CO)C(O)C(O)C3O)c(O)c12 (configuration not stated),12.7 µM
7,Cn1cccc1C(=O)NC(=O)COC(=O)CC12CC3CC(CC(Br)(C3)C1)C2,58.5 µM
8,CCOC(=O)C1=C(COC(=O)/C=C/c2ccco2)NC(=O)NC1C (configuration not stated),10.9 µM
9,CCN(CC)S(=O)(=O)c1ccc(/C=C/C(=O)Nc2ccc(N3CCOCC3)cc2)cc1,55.7 µM
10,O=C(OC1CCCCC1)c1ccc2c(c1)C1C=CCC1C(C(=O)O)N2 (configuration not stated),0.51 µM
11,Cc1cc2c(N)cccc2nn1,< 0.195 µM
12,CC(C)c1ccc(N2C(=O)NC(=O)/C(=C\C=C\c3ccco3)C2=O)cc1,9.35 µM
13,CCCNC1=C(C)C(=O)C2=C(C1=O)C(COC(N)=O)[C@]1(OC)C3NC3CN21 (some centres not stated),8.12 µM
14,O=C(CCc1c[nH]c2ccccc12)N1CCN(c2ccc(O)cc2)CC1,13.3 µM
15,COC(=O)C1=C(C)NC(=O)/C1=C\c1cc(C)n(-c2ccccc2C)c1C,14.2 µM
16,O=C(NNC(=O)c1ccccc1F)c1cccc(-n2cccc2)c1,8.55 µM
17,Cc1cc(NC(=O)CCNS(=O)(=O)c2cc(Br)cnc2N)ccc1Br,35.2 µM
18,COc1cccc(CNC(=O)Cn2c(=O)oc3ccccc32)c1OC,85.7 µM
19,CN(C)c1ccc(Cc2cc3c(O)ccc(O)c3cc(Cc3ccc(N(C)C)cc3)c2=O)cc1,0.87 µM
20,O=C(O)C1Nc2c(O)cccc2C2C=CCC12 (configuration not stated),0.25 µM
